Results taken from patent US20120202806A1, “Novel Pyrimidine- And Triazine-Hepcidine Antagonists” (VIFOR (INTERNATIONAL) AG, priority 2009, published 2012).

Molecular target: T1, human ferroportin (Fpn) (Homo sapiens, UniProt Q9NP59)
T1 construct: expressed in transfected cells
T1 sequence (Q9NP59 1-571): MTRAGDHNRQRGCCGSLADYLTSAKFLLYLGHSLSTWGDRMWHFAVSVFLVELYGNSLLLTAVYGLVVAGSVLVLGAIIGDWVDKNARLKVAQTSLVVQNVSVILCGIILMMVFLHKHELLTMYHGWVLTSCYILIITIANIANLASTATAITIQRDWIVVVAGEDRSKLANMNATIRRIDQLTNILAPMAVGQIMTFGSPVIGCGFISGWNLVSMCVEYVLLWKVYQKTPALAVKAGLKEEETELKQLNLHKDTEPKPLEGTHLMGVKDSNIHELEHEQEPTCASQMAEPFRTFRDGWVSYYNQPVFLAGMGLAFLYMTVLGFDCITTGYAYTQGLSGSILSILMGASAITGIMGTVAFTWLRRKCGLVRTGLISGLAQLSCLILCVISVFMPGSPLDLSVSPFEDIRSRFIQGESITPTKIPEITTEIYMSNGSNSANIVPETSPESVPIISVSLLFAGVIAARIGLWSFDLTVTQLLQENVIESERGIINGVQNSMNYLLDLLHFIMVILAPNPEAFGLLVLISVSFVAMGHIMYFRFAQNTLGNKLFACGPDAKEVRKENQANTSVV
Test: Ferroportin internalisation assay (inhibition of hepcidin-induced internalisation of Fpn in MDCK-FPN-HaloTag cells)
Assay type: cell-based
Details: 100 nM hepcidin; for inhibition at 10 µM: 10 μM substance, inhibition of Fpn internalisation, read-out: I [%] (Median Inhibition [%] at 10 μM substance conc.); for IC50: overnight incubation, 11 concentrations 0.04 to 40 μM
Description: The antagonistic effect against hepcidin of the pyrimidine and triazine compounds of the present invention was determined by means of the ferroportin internalisation assay described below.
Low molecular weight organic compounds which counteract the biological effects of hepcidin on its receptor, the iron exporter ferroportin (Fpn) were identified on the basis of their ability to inhibit hepcidin-induced internalisation of Fpn in living cells. A stable cell line (Madin-Darby Canine Kidney, MDCK) was produced for this purpose to express constitutively human ferroportin which is fused recombinantly with a fluorescent reporter protein (HaloTag®, Promega Corp.) at its C terminus. The internalisation of Fpn was monitored by marking these cells with fluorescent ligands (HaloTag® TMR, tetramethylrhodamine) which attach themselves covalently to the HaloTag reporter gene fused with the Fpn. […] Optimised image analysis algorithms were used to detect the cell surface and to quantify the corresponding membrane fluorescence associated with the Fpn-HaloTag fusion protein.

Row | Structure (SMILES) | inhibition at 10 µM [%] | IC50 [µM]
1 | Oc1cccc(/C=N/Nc2cc(N3CCOCC3)nc(N3CCOCC3)n2)c1 [Example 5, 3-[(2,6-Dimorpholin-4-yl-pyrimidin-4-yl)-hydrazonomethyl]-phenol] | > 50 | 
2 | Cc1nc(N/N=C/c2ccc(O)cc2O)cc(N2CCOCC2)n1 [Example 6, 4-[(2-Methyl-6-morpholin-4-yl-pyrimidin-4-yl)-hydrazonomethyl]-benzene-1,3-diol] | > 50 | 
3 | Cc1nc(-c2ccccn2)nc(NCCNc2ccc(C(F)(F)F)cn2)c1Cl [Example 4, N-(5-Chloro-6-methyl-2-pyridin-2-yl-pyrimidin-4-yl)-N′-(5-trifluoromethyl-pyridin-2-yl)-ethane-1,2-diamine] | < 50 | 
4 | Nc1nc(-c2ccccn2)nc(N)c1Cc1ccccc1F [Example 3, 5-(2-Fluoro-benzyl)-2-pyridin-2-yl-pyrimidine-4,6-diamine] | < 50 | 
5 | Cc1nc(-c2ccccn2)nc(NCCNc2cc(C(F)(F)F)ccn2)c1Cl [Example 2, N-(5-Chloro-6-methyl-2-pyridin-2-yl-pyrimidin-4-yl)-N′-(4-trifluoromethyl-pyridin-2-yl)-ethane-1,2-diamine] | < 50 | 
6 | COc1cnc(-c2ccccn2)nc1NC(C)C [Example 1, Isopropyl-(5-methoxy-2-pyridin-2-yl-pyrimidin-4-yl)-amine] | > 50 | 
7 | COc1cnc(CN)nc1NC(C)C [Example 50, (2-Aminomethyl-5-methoxy-pyrimidin-4-yl)-isopropyl-amine] |  | < 50
8 | C/C(=N\Nc1cc(N2CCOCC2)nc(C)n1)c1ccc(F)cc1 [Example 8, N-[1-(4-Fluoro-phenyl)-ethylidene]-N′-(2-methyl-6-morpholin-4-yl-pyrimidin-4-yl)-hydrazine] | < 50 | 
9 | COc1cnc(-c2ccccn2)nc1N(C)Cc1ccccc1 [Example 24, Benzyl-(5-methoxy-2-pyridin-2-yl-pyrimidin-4-yl)-methyl-amine] |  | > 50

Second part, the molecule after the results:

Row | inhibition at 10 µM [%] | IC50 [µM] | Structure (SMILES)
10 | < 50 |  | CN(c1ccccc1)c1nc(N2CCOCC2)nc(-n2ccnc2)n1 [Example 11, (4-Imidazol-1-yl-6-morpholin-4-yl-[1,3,5]triazin-2-yl)-methyl-phenyl-amine]
11 | > 50 |  | c1ccc(N(c2ccccc2)c2nc(N3CCOCC3)nc(-n3ccnc3)n2)cc1 [Example 10, (4-Imidazol-1-yl-6-morpholin-4-yl-[1,3,5]triazin-2-yl)-diphenyl-amine]
12 | < 50 |  | Cc1ccc2cc(Nc3nc(N4CCOCC4)nc(N4CCOCC4)n3)ccc2n1 [Example 12, (4,6-Dimorpholin-4-yl-[1,3,5]triazin-2-yl)-(2-methyl-quinolin-6-yl)-amine]
13 | > 50 |  | COc1ccc(O)c(/C=N/Nc2nc(N3CCOCC3)nc(N3CCOCC3)n2)c1 [Example 9, 2-[(4,6-Dimorpholin-4-yl-[1,3,5]triazin-2-yl)-hydrazonomethyl]-4-methoxy-phenol]
14 | > 50 |  | Oc1ccccc1/C=N/Nc1cc(N2CCOCC2)nc(N2CCOCC2)n1 [Example 7, 2-[(2,6-Dimorpholin-4-yl-pyrimidin-4-yl)-hydrazonomethyl]-phenol]
